target: T1, Protoporphyrinogen IX oxidase (Zea mays) (UniProt Q9FYV8); assay: Inhibition of protoporphyrinogen IX oxidase in Zea mays cv. DK212MF (maize) seedlings assessed as protoporphyrin IX formation at 10 uM after 5 min by spectrophotometry
T1 sequence (whole entry): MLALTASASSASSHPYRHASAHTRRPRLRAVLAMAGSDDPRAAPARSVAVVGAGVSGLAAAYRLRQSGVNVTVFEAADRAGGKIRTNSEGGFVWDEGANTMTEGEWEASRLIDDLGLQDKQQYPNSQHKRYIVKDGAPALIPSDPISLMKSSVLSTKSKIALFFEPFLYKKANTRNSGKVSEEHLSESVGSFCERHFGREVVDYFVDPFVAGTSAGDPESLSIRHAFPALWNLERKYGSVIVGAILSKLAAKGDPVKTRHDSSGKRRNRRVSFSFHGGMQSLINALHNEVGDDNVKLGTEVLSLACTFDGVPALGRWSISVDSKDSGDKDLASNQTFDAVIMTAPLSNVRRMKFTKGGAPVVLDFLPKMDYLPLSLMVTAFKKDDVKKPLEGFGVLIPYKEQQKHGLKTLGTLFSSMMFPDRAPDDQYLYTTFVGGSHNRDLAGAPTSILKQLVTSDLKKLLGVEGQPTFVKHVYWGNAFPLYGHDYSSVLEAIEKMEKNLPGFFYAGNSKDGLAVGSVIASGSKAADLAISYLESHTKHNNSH

Row | inhibition [%] | Structure (SMILES)
1 | 11.2 | O=c1c2c(sn1-c1ccc(Cl)cc1)CCCC2

test system: Scenedesmus acutus; assay: Phytotoxicity against Scenedesmus acutus assessed as ethane production level per ml of packed cell volume at 10 uM after 20 hr by gas chromatography; type: functional

Row | Structure (SMILES) | Activity [nmol/mL]
2 | O=c1c2c([s+]([O-])n1-c1cc(OC3CCCC3)c(Cl)cc1F)CCCC2 (stereo not drawn) | 0
3 | CC(C)OC(=O)c1cc(-n2sc3c(c2=O)CCCC3)ccc1Cl | 3
4 | O=C1C2=C(CCCC2)S(=O)(=O)N1c1ccc(Cl)cc1 | 12
5 | O=C1C2=C(CCCC2)S(=O)(=O)N1c1cc(OC2CCCC2)c(Cl)cc1F | 3
6 | O=c1c2c([s+]([O-])n1-c1ccc(Cl)cc1)CCCC2 (stereo not drawn) | 3
7 | CC(C)OC(=O)c1cc(N2C(=O)C3=C(CCCC3)S2(=O)=O)ccc1Cl | 12
8 | CC(C)OC(=O)c1cc(N2C(=O)C3=C(CCCC3)C2=O)ccc1Cl | 12
9 | O=c1c2c(sn1-c1ccc(Cl)cc1)CCCC2 | 7
10 | O=C1C2=C(CCCC2)C(=O)N1c1cc(OC2CCCC2)c(Cl)cc1F | 12
11 | O=C1C2=C(CCCC2)C(=O)N1c1ccc(Cl)cc1 [CHLOROPHTHALIUM] | 12
12 | CC(C)OC(=O)c1cc(-n2c(=O)c3c([s+]2[O-])CCCC3)ccc1Cl (stereo not drawn) | 3
13 | O=c1c2c(sn1-c1cc(OC3CCCC3)c(Cl)cc1F)CCCC2 | 0

Reference: ChEMBL document CHEMBL3044743, “Synthesis and Phytotoxic Activities of N-Substituted Phenyl Isothiazolone Derivatives” (J Pestic Sci, 2003)
